Experimental data reported in US20160022701A1, “NEUROACTIVE STEROIDS, COMPOSITIONS, AND USES THEREOF” (SAGE THERAPEUTICS, INC., priority 2013, published 2016).

Target: T1, NMDA receptor (GRIN1/GRIN2A subunits) (Homo sapiens, UniProt Q05586+Q12879)
T1 construct: expressed in transfected cells; host or cells: HEK 293 cells, stably transfected with GRIN1 and transiently transfected with GRIN2A and CD8
Assay: NMDA potentiation, whole-cell patch-clamp in HEK cells
Assay type: cell-based
Details: currents evoked by 30 μM NMDA and 5.0 μM Glycine, holding potential −80 mV; for activation at 0.1 µM: HEK293, compound 0.1 uM, read-out: NMDA 1a2A (%) Potentiation 0.1 uM; for activation at 1 µM: HEK293, compound 1 uM, read-out: NMDA 1a2A (%) Potentiation 1 uM

T1 sequence (Q12879 23-1464, other chains not shown): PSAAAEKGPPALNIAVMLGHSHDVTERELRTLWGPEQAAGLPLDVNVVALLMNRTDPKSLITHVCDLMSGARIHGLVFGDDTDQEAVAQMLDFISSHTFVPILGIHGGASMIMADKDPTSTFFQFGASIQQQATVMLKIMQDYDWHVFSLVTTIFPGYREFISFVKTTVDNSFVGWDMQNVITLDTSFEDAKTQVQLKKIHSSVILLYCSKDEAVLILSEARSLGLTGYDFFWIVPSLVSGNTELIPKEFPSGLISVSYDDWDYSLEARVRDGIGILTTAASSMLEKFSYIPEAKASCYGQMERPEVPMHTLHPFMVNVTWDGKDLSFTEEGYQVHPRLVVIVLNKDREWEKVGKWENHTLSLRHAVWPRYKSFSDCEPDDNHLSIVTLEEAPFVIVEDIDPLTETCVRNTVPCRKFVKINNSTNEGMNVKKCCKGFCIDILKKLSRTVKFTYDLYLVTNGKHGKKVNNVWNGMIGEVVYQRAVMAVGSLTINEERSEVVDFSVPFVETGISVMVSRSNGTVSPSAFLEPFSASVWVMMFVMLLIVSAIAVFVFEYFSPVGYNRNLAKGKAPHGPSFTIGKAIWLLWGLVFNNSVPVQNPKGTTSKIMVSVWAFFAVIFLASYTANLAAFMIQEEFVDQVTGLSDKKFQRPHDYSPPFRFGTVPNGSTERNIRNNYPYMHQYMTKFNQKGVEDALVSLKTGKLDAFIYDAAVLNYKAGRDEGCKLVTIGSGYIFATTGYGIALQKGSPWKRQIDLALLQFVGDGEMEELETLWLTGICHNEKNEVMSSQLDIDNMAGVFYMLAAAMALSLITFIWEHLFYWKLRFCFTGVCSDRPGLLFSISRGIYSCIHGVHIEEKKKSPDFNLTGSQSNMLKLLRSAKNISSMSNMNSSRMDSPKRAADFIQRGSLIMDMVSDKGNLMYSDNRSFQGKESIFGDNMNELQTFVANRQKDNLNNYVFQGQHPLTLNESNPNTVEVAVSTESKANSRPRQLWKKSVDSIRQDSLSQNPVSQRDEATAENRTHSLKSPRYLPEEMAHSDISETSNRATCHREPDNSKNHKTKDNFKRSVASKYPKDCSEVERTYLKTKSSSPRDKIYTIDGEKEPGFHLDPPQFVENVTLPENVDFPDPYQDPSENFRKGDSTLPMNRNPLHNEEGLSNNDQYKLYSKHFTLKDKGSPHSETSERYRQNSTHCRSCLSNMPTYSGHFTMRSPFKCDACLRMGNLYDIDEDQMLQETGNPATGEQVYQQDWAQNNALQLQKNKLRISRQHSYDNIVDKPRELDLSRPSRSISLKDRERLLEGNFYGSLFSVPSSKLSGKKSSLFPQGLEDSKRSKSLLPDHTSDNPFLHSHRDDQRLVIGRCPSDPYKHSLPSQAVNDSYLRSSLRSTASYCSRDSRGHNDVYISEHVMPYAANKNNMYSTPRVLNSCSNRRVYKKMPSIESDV

SMILES | activation at 0.1 µM [%] | activation at 1 µM [%]
C[C@H](CC(F)(F)CO)[C@H]1CC[C@H]2[C@@H]3CC=C4C[C@@H](O)CC[C@]4(C)[C@H]3CC[C@]12C | 31 | 95
COC[C@]1(O)CC[C@@]2(C)[C@@H](CC[C@@H]3[C@@H]2CC[C@]2(C)[C@@H]([C@H](C)CCC(C)(C)O)CC[C@@H]32)C1 | 14 | 110
C[C@H](CCC(C)(C)O)[C@H]1CC[C@H]2[C@@H]3CC[C@H]4C[C@@](C)(O)CC[C@]4(C)[C@H]3CC[C@]12C | 87 | –
C[C@H](CCC(C)(C)O)[C@H]1CC[C@H]2[C@@H]3CC=C4C[C@@](C)(O)CC[C@]4(C)[C@H]3CC[C@]12C | 128 | 348
C[C@H](CCC(C)(C)O)[C@H]1CC[C@H]2[C@@H]3CC[C@H]4C[C@](C)(O)CC[C@]4(C)[C@H]3CC[C@]12C | 19 | 30
C[C@H](CCC(C)(C)O)[C@H]1CC[C@H]2[C@@H]3CC[C@H]4C[C@](O)(C(F)(F)F)CC[C@]4(C)[C@H]3CC[C@]12C | 59 | 172
C[C@@H]([C@H]1CC[C@H]2[C@@H]3CC=C4C[C@@H](O)CC[C@]4(C)[C@H]3CC[C@]12C)C(C)(C)O | 4 | 24
C[C@H](CCC1(O)CC1)[C@H]1CC[C@H]2[C@@H]3CC=C4C[C@@H](O)CC[C@]4(C)[C@H]3CC[C@]12C | 74 | 171
CC(O)CC[C@@H](C)[C@H]1CC[C@H]2[C@@H]3CC=C4C[C@@H](O)CC[C@]4(C)[C@H]3CC[C@]12C (stereo partly drawn) | 42 | 98
C[C@H](CCC(C)(C)O)[C@H]1CC[C@H]2[C@@H]3CC[C@H]4C[C@](C)(O)CC[C@@H]4[C@H]3CC[C@]12C | 21 | 52
CC(C)[C@H](O)CC[C@@H](C)[C@H]1CC[C@H]2[C@@H]3CC=C4C[C@@H](O)CC[C@]4(C)[C@H]3CC[C@]12C | 82 | 137
C[C@H](CCC(C)(C)O)[C@H]1CC[C@H]2[C@@H]3CC=C4C[C@@H](O)CC[C@@H]4[C@H]3CC[C@]12C | 28 | 66
CC(C)(O)CCC[C@H]1CCC2C3CC[C@H]4C[C@@](C)(O)CC[C@]4(C)C3CC[C@@]21C (stereo partly drawn) | 17 | 105
CC(C)(O)CCO[C@H]1CCC2C3CC[C@H]4C[C@@](C)(O)CC[C@]4(C)C3CC[C@@]21C (stereo partly drawn) | 6 | 27
C[C@H](CC(C)(C)O)[C@H]1CC[C@H]2[C@@H]3CC=C4C[C@@H](O)CC[C@]4(C)[C@H]3CC[C@]12C | -5 | 27
C[C@H](CCC(C)(C)O)[C@H]1CC[C@H]2[C@@H]3CC[C@H]4C[C@@H](O)CC[C@@H]4[C@H]3CC[C@]12C | 19 | 44
C[C@H](CCC(C)(C)O)[C@H]1CC[C@H]2[C@@H]3CC=C4C[C@](C)(O)CC[C@]4(C)[C@H]3CC[C@]12C | 13 | 60
C[C@H](CCC(C)(C)O)[C@H]1CC[C@H]2[C@@H]3CC[C@H]4C[C@](O)(C(F)(F)F)CC[C@@H]4[C@H]3CC[C@]12C | 14 | 85
CC[C@]1(O)CC[C@@]2(C)C(=CC[C@H]3[C@@H]4CC[C@H]([C@H](C)CCC(C)(C)O)[C@@]4(C)CC[C@@H]32)C1 | 181 | 286
C[C@H](CCC(C)(C)N)[C@H]1CC[C@H]2[C@@H]3CC=C4C[C@@H](O)CC[C@]4(C)[C@H]3CC[C@]12C | -8 | -19
CNC(C)(C)CC[C@@H](C)[C@H]1CC[C@H]2[C@@H]3CC=C4C[C@@H](O)CC[C@]4(C)[C@H]3CC[C@]12C | 25 | 19
C[C@H](CCCO)[C@H]1CC[C@H]2[C@@H]3CC=C4C[C@@H](O)CC[C@]4(C)[C@H]3CC[C@]12C | 39 | 127
CC(C)(O)COC[C@H]1CCC2C3CC=C4C[C@@](C)(O)CC[C@]4(C)C3CC[C@@]21C (stereo partly drawn) | -5 | -14
COC[C@@]1(O)CC[C@@]2(C)[C@@H](CC[C@@H]3[C@@H]2CC[C@]2(C)[C@@H]([C@H](C)CCC(C)(C)O)CC[C@@H]32)C1 | 8 | 25
CC(CCC(C)(C)O)[C@H]1CC[C@H]2[C@@H]3CC=C4C[C@@H](O)CC[C@]4(C)[C@H]3CC[C@]12C (stereo partly drawn) [Compound 1] | 55 | 197
C[C@H](CCC(C)(C)O)[C@H]1CC[C@H]2[C@@H]3CC[C@H]4C[C@@H](O)CC[C@]4(C)[C@H]3CC[C@]12C | 18 | 85
C[C@H](CCC(C)(C)O)[C@H]1CC[C@H]2[C@@H]3CC[C@H]4C[C@@](C)(O)CC[C@@H]4[C@H]3CC[C@]12C | 25 | 114
CC[C@@]1(O)CC[C@@]2(C)C(=CC[C@H]3[C@@H]4CC[C@H]([C@H](C)CCC(C)(C)O)[C@@]4(C)CC[C@@H]32)C1 | 23 | 139
C[C@H](CCC(C)(C)O)[C@H]1CC[C@H]2[C@@H]3CC[C@@H]4C[C@@](O)(C(F)(F)F)CC[C@]4(C)[C@H]3CC[C@]12C | 9 | 18
